Data reported in patent publication US20230341397A1, “PROTEASE BIOSENSORS AND METHODS OF VIRUS DETECTION” (Montana Molecular LLC, priority 2020, published 2023).

Assays:
[1] = system: feline infectious peritonitis virus (FPIV); conditions: Kim et al. 2016; disease otherwise 100% lethal; cited from earlier work
HEK 293 cells = conditions: all GC376 concentrations (FIG. 11B)

SMILES: CC(C)C[C@H](NC(=O)OCc1ccccc1)C(=O)N[C@@H](C[C@@H]1CCNC1=O)C(O)S(=O)(=O)[O-].[Na+] (some centres unmarked) [GC376]
- outcome in cats with clinical FPIV [1]: rescues them
- cell death / red fluorescent protein signal (HEK 293 cells): not due to cell death
